Assay results as given in patent publication US11192849B2, “Compounds, compositions, and methods for modulating ferroptosis and treating excitotoxic disorders” (THE TRUSTEES OF COLUMBIA UNIVERSITY IN THE CITY OF NEW YORK, priority 2013, dated 2021).

Tests used:
[1] = system: HT-1080 cells; test: HT-1080 cell proliferation (Vi-Cell); assay type: cell-based, human; conditions: over 48 hours
Procedure: Cell viability was typically assessed in 384-well format by Alamar Blue (Invitrogen) fluorescence (ex/em 530/590) measured on a Victor3 platereader (Perkin Elmer, Waltham, Mass.). In some experiments, Trypan Blue dye exclusion counting was performed using an automated cell counter (ViCell, Beckman-Coulter Inc., Brea, Calif.). Cell viability in test conditions is reported as a percentage relative to the negative control treatment.

[2] = system: HT-1080 cells; test: Cytosolic and lipid ROS production (H2DCFDA, C11-BODIPY flow cytometry) in HT-1080 cells; assay type: cell-based, human; conditions: erastin (10 μM)
Procedure: The day before the experiment, 200,000 cells/well were seeded in 6-well dishes (Corning Inc., Corning, N.Y.). The day of the experiment, cells were treated with test compounds for the indicated times, then harvested by trypsinization, resuspended in 500 μL Hanks Balanced Salt Solution (HBSS, Gibco, Invitrogen Corp., Carlsbad, Calif.) containing either H2DCFDA (25 μM), C11-BODIPY(581/591) (2 μM) or MitoSOX (5 μM) (all from Molecular Probes, Invitrogen) and incubated for 10 minutes at 37° C. in a tissue culture incubator. Cells were then resuspended in 500 μL of fresh HBSS, strained through a […] cell strainer (BD Falcon, BD Biosciences, San Jose, Calif.), and analyzed using a flow cytometer (FACSCalibur or Accuri C6, BD Biosciences), which was equipped with 488-nm laser for excitation. Data was collected from the FL1 (H2DCFDA, C11-BODIPY) or FL2 channel (MitoSOX). A minimum of 10,000 cells were analyzed per condition.

[3] = system: mice, IRI of the cremaster muscle; test: In vivo microscopy on the postischemic cremaster muscle; parameters: species or system mouse
Procedure: The surgical preparation of the cremaster muscle was performed as originally described by Baez with minor modifications (Traykova-Brauch et al., 2008; Mulay et al., 2013). Mice were anesthetized using a ketamine/xylazine mixture (100 mg/kg ketamine and 10 mg/kg xylazine), administrated by i.p. injection. The left femoral artery was cannulated in a retrograde manner for administration of microspheres and drugs. The right cremaster muscle was exposed through a ventral incision of the scrotum. The muscle was opened ventrally in a relatively avascular zone, using careful electrocautery to stop any bleeding, and spread over the transparent pedestal of a custom-made microscopic stage. Epididymis and testicle were detached from the cremaster muscle and placed into the abdominal cavity. Throughout the procedure as well as after surgical preparation during in vivo microscopy, the muscle was superfused with warm-buffered saline.
The setup for in vivo microscopy was centered around equipment for stroboscopic fluorescence epiillumination microscopy. […] Microscopy images were obtained with Olympus water immersion lenses (20×/numerical aperture (N.A.) 0.5 and 10×/N.A. 0.3) and recorded with an analog black-and-white charge-coupled device (CCD) video camera (Cohu 4920; Cohu) and an analog video recorder (AG-7350-E; Panasonic). […] For measurement of centerline blood flow velocity, green fluorescent microspheres (2-μm diameter; Molecular Probes) were injected via the femoral artery catheter, and their passage through the vessels of interest was recorded using the FITC filter cube under appropriate stroboscopic illumination (exposure, 1 ms; cycle time, 10 ms; length of the electromagnetic wave, 488 nm), integrating video images for sufficient time (>80 ms) to allow for the recording of several images of the same bead on one frame. […]

CCOC(=O)c1ccc(NC2CCCCC2)c(N)c1 [SRS8-28 (Fer-1), ethyl 3-amino-4-(cyclohexylamino)benzoate]
HT-1080 cell proliferation [1]: did not inhibit ERK phosphorylation or arrest the proliferation of HT-1080 cells | effect of inhibitor on erastin-induced ROS accumulation [2]: prevent erastin-induced accumulation of cytosolic and lipid ROS | leukocyte adherence ([3]; 1 h and 2 h after onset of reperfusion): remains unchanged | leukocyte transmigration ([3]; ferrostatin-1 2 mg/kg i.p.): Significantly reduced | leukocyte rolling ([3]; within the first hour after reperfusion): is affected
